# Measured values: article PMC9312091, “Mining Amphibian and Insect Transcriptomes for Antimicrobial Peptide Sequences with rAMPage” (Antibiotics, 2022)
# Peptide text beside a SMILES is read from it.
# Test system: E. coli and/or S. aureus
# Assay: Antimicrobial susceptibility testing (MIC and MBC), summary statements
# Assay type: cell-based
# Settings: AST in vitro against E. coli ATCC 25922 and S. aureus ATCC 29213
# Method: A total of 21 of the 1137 putative AMPs (Table S2) were synthesized (Genscript Biotech, Piscataway, NJ, USA) and tested for their antimicrobial activity against Escherichia coli ATCC 25922 and Staphylococcus aureus ATCC 29213 in a minimum of three independent experiments (see Figure S5 for a full set of experimental results). In these antimicrobial susceptibility tests, AMP activity was assessed using two metrics: minimum inhibitory and bactericidal concentrations (MIC and MBC, respectively). Lower MIC and MBC values are desirable as they indicate that lower AMP concentrations are sufficient for inhibitory or bactericidal activity, respectively. AMP toxicity was measured by HC50 hemolytic concentration values—the concentration required to lyse ≥ 50% of porcine red blood cells. […]
# Twenty-one putative AMP sequences identified using the rAMPage pipeline were validated through a minimum of three AST experiments performed independently on separate days. In these tests, the AMP activity was assessed using two metrics: minimum inhibitory concentration and minimum bactericidal concentration (MIC and MBC, respectively). MIC and MBC values were determined using procedures outlined by the Clinical and Laboratory Standards Institute (CLSI), with the recommended adaptations for the testing of cationic AMPs described previously. […]
smiles,measurement,value
CC(C)C[C@H](NC(=O)[C@H](CCCCN)NC(=O)[C@H](CCC(=O)O)NC(=O)[C@H](CC(C)C)NC(=O)[C@H](CCCNC(=N)N)NC(=O)[C@@H](NC(=O)[C@H](Cc1ccc(O)cc1)NC(=O)[C@H](CC(N)=O)NC(=O)[C@H](CCCCN)NC(=O)[C@H](CCCCN)NC(=O)[C@H](CC(N)=O)NC(=O)[C@@H](NC(=O)[C@H](CC(C)C)NC(=O)[C@H](CCCCN)NC(=O)[C@H](CCCCN)NC(=O)[C@@H](NC(=O)[C@H](CO)NC(=O)[C@H](CCCCN)NC(=O)[C@H](CO)NC(=O)[C@H](CC(C)C)NC(=O)[C@H](Cc1c[nH]c2ccccc12)NC(=O)[C@@H](N)CO)C(C)C)C(C)C)[C@@H](C)O)C(=O)N[C@@H](C)C(=O)N[C@@H](CCCCN)C(=O)N[C@@H](CCCCN)C(=O)N[C@@H](CCCCN)C(=O)N[C@@H](CC(C)C)C(=O)N[C@@H](Cc1ccccc1)C(=O)N[C@@H](CC(N)=O)C(=O)N[C@@H](CCC(=O)O)C(=O)O [TeRu4] (H-SWLSKSVKKLVNKKNYTRLEKLAKKKLFNE-OH; N-terminus and C-terminus assumed),antimicrobial activity (in words),active only against E. coli
